Holding throughout (assay type): cell-based
Data set [1] relates to DENV2. The experiment in a line: DENV2 replication in BHK-21 cells, viral RNA by qRT-PCR. As to conditions: for SI, selectivity index (CC50/IC50): DENV2, BHK-21 cells, qRT-PCR IC50; for IC50: Dengue virus, DENV2, BHK-21, read-out: IC50, reduction of DENV2 viral RNA. The procedure:
First, cytotoxic impact of these compounds was evaluated using MTT assay. […] Subsequently, we evaluated the effectiveness of these compounds in inhibiting DENV2 replication. BHK-21 cells were infected with the virus in presence of increasing concentration of these compounds, and harvested at 24 hpi. The virus replication rate was assessed by quantifying the copy number of viral genomic RNA using quantitative real-time PCR (qRT-PCR).
BHK-21 cells were seeded in a 24-well cell culture plate at a density of (0.25 × 10^6 cells/well) with regular growth medium containing DMEM + 10% FBS 1 day prior to infection in triplicate. Once the cells reached 85%–90% confluence, they were infected with DENV2 and JEV virus inoculum comprising DMEM + 2% FBS and 10 µM of the compound at an MOI of 0.1. Cells were incubated for 1.5 h at 37 °C with the virus-compound inoculum, with gentle rocking every 10 min to ensure even coverage and prevent the cellular monolayer from drying. Finally, the inoculum was replenished with fresh culture media comprising DMEM + 2% FBS and the compound, and then kept in an incubator in a humidified chamber at 37 °C until harvest (18 h). The cell culture supernatant was aspirated and washed with PBS, and the cellular monolayer was used for viral RNA isolation.
Total cellular RNA was extracted from BHK-21 cells using TRIzol reagent, according to the manufacturer’s instructions (Ambion Life Technologies, USA). RNA quantity and integrity were determined prior to use on a NanoDrop spectrophotometer (Thermo Fisher Scientific). Then, 1 µg of total RNA from each experimental sample was used to synthesize cDNA by reverse transcriptase (RT) by incubating the RNAs with Moloney murine leukemia virus (M-MuLV) RT, with specific RT primer, 5′-[…]-3′ (Tm = 63 °C), and deoxynucleoside triphosphates (dNTPs) (New England Biolabs) at 42 °C for 50 min, followed by inactivation at 70 °C for 15 min.
To quantify the viral RNA copy number, quantitative RT-PCR (qRT-PCR) was performed in duplicate using iTaq Universal SYBR Green Supermix (Bio-Rad). The cDNAs used for qPCR analysis were prepared using Power SYBR Green PCR Master Mix (Bio-Rad, #172–5125) in a QuantStudio5 Applied Biosystems real-time PCR system. For qPCR amplification of the JEV amplicon size of 202 bp, the sequences of the forward and reverse primer pairs used were 5′-[…]-3′ (Tm = 65 °C) and 5′-[…]-3′ (Tm = 63 °C) and for DENV amplicon of 163 bp, the sequences of the forward and reverse primer pair used were 5′-[…]-3′ (Tm = 61 °C) and 5′-[…]-3′ (Tm = 59 °C). […] Delta Ct for both control and compound-treated samples was determined and subsequently analyzed by determining the delta Ct to determine the mRNA expression of target genes in control vs treated samples.
(In qPCR the cycle at which signal appears reflects the starting amount.)

Data set [2] has as its system DENV2. The experiment in a line: DENV2 progeny virus titer in BHK-21 supernatant (TCID50 assay). The note with it: Dengue virus, DENV2, BHK-21, read-out: IC50 of viral titer reduction (called TCID50 in the source). As to the method: To this end, we assessed the antiviral activity of shortlisted compounds by evaluating their ability to inhibit progeny virus production. BHK-21 cells were infected with DENV2 and JEV (MOI: 0.1) in the presence of different concentrations of 3aq or 3au or with DMSO, and viral titer was determined in the supernatants harvested at 18 hpi. Compound 3aq caused the maximum reduction of viral titer showing TCID50 of 5.18 ± 0.87 and 2.29 ± 0.50 µM against DENV2 and JEV, respectively (Fig. 8B and D).
During DENV2 and JEV infection, the viral supernatant was collected and used in the TCID50 assay to determine the viral titer. Then, 3 × 10^4 BHK-21 cells per well were seeded in a 96-well cell culture microtiter plate the day before titration. The virus stock was diluted with infection media (DMEM + 2% FBS) to attain virus dilutions of 1 × 10^−2 to 6.4 × 10^−7 in 12 parallels, with the last column of the 96-well plate serving as virus-free cell control. On the day of the assay, when the cell had reached 90%–95% confluency, the growth medium was aspirated using a multichannel pipette, and 100 µL of virus inoculum of different dilutions was transferred to each well, keeping the last well only in infection media without virus. The cells were then incubated at 37 °C in a humidified 5% CO2 chamber. […] TCID50 was calculated using the Spearman and Karber methods.

Data set [3] can be described thus: MTT cytotoxicity assay in SH-SY5Y cells. As to conditions: human. The procedure:
We further studied the effect of the compounds on JEV replication in the human neuroblastoma SH-SY5Y cells, which represents a suitable model cell line for a neuropathic virus, like JEV. At first, the cytotoxicity was studied for both compounds in SH-SY5Y cells. […] Then, the SH-SY5Y cells were infected with the JEV virus in the absence or presence of 3aq or 3au (10 µM), and viral genomic RNA copies were quantified using qRT-PCR at 24, 48, and 72 hpi, as described previously.
The MTT assay was performed to determine cellular metabolic activity as an indicator of cell viability, proliferation, and cytotoxicity. Thus, to determine whether these compounds had any toxic effects on cellular viability, an MTT assay was performed following the protocol described previously by Mosmann (1983) ([55], [56]). Briefly, BHK-21 and SH-SHY5Y cells were seeded into 96-well plates at a density of 20,000 cells/well. Almost 16–18 h later, the cells were treated with different concentrations of the compounds (3au and 3aq) for 24 h at 37 °C in 5% CO2. […] The absorbance of the solution in a 96-well plate was measured at 595 nm using a microplate reader (Epoch 2; BioTek Instruments). Each experiment was performed in triplicate, and the percentage of cell viability was determined as the ratio of the absorbance values of the experimental samples to the control solvent (DMSO) on the same plate.
(Tetrazolium assays rely on reduction of a dye to a coloured formazan, in cell work by metabolically active cells.)

As a reminder, the IC50 is the concentration that inhibits the measured activity by half. As usually defined, the CC50 is the concentration that lowers cell viability or growth by half.

Each structure is given as a SMILES string.

As to `COc1ccc(-c2csc(N/N=C(\C)c3cc(O)cc(O)c3)n2)cc1` [3au], in the data set with DENV2 [1], the “SI, selectivity index (CC50/IC50)” value is 10.38. Besides, the values for the IC50 in the data set on DENV2 [1] and in the data set on DENV2 [2] were 7.38 ± 0.6 µM and 7.58 ± 1.02 µM, respectively. Besides, half-maximal cytotoxicity in data set [3] (CC50 at 24 h) was put at 49.4 ± 3.65 µM.
The corresponding values for `COc1ccc(-c2csc(N/N=C(\C)c3ccc(O)cc3)n2)cc1` [3aq] are 18.35, 4.47 ± 0.41 µM, 5.18 ± 0.87 µM and 58.3 ± 4.31 µM.
